The values below come from ChEMBL document CHEMBL5725366, “Oxindole compounds carrying a nitrogen-bound spiro substituent and use thereof for treating vasopressin-related diseases” (2017).

Structures are written as SMILES.

The assay has as its target T1, Vasopressin V1b receptor (Homo sapiens, UniProt P47901).
T1 sequence (P47901 whole entry): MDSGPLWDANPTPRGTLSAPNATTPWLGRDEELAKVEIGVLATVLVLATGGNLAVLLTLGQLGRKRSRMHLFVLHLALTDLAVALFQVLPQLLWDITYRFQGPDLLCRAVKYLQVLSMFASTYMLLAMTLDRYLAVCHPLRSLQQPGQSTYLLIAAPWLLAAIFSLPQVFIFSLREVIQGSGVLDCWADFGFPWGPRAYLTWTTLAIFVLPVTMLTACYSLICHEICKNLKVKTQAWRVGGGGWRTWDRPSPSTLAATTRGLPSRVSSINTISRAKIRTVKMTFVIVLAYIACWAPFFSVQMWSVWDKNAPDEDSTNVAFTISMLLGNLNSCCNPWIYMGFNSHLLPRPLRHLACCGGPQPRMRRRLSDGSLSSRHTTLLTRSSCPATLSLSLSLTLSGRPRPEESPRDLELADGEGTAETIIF
In words: The nonspecific binding was determined with 1 μM AVP (Fluka 94836). All determinations were carried out as duplicate determinations. […] The liquid scintillation measurement took place in a Microbeta TriLux 12 (Wallac).
With `COc1ccc(S(=O)(=O)N2C(=O)C(c3ccc(F)cc3OC)(N3CC4(CN(C5CCN(C)CC5)C4)C3)C3C=C(C#N)C=CC32)nc1` (stereo not given), the Ki result was “in the range around 5.5 nM”.

As for `CCOc1ccc(OC)cc1[C@]1(N2CC3(CN(C4CCN(C)CC4)C3)C2)C(=O)N(S(=O)(=O)c2ccccn2)C2C=CC(C#N)=CC21` (stereo not given in full), the inhibition constant (Ki) result was “in the range around 5.5 nM”.

`CCOc1ccc(OC)c(C2(N3CC4(CN(C5CCN(C)CC5)C4)C3)C(=O)N(S(=O)(=O)c3ccc(OC)cn3)C3C=CC(C#N)=CC32)c1` (racemic; form 2): the Ki result is “in the range around 5.5 nM”.

Consider `COc1ccc(S(=O)(=O)N2C(=O)C(c3ccccc3OC)(N3CC4(CN(C5CCN(C)CC5)C4)C3)C3C=C(C#N)C=CC32)nc1` (racemic), for which the Ki entry was “in the range around 5.5 nM”.

With `COc1ccc(S(=O)(=O)N2C(=O)C(c3cccnc3OC(C)(F)F)(N3CC4(CN(C5CCN(C)CC5)C4)C3)C3C=C(C#N)C=CC32)nc1` (racemic), the inhibition constant (Ki) result is “in the range around 5.5 nM”.

Regarding `COc1ccc(S(=O)(=O)N2C(=O)C(c3cccnc3OC)(N3CC4(CN(C5CCN(C)CC5)C4)C3)C3C=C(C#N)C=CC32)nc1` (racemic; form 2), the Ki result is “in the range around 5.5 nM”.

With `COc1ccc(S(=O)(=O)N2C(=O)C(c3cccnc3OC)(N3CC4(CN(C5CCN(C)CC5)C4)C3)C3C=C(C#N)C=CC32)nc1` (racemic; form 1), the inhibition constant Ki entry is “in the range around 5.5 nM”.

For `CCOc1ccc(OC)c(C2(N3CC4(CN(C5CCN(C6COC6)CC5)C4)C3)C(=O)N(S(=O)(=O)c3ccc(OC)cn3)C3C=CC(C#N)=CC32)c1` (racemic), the Ki entry is “in the range around 5.5 nM”.

For the compound `CCOc1ccc(OC)c(C2(N3CC4(CN(C5CCN(C)CC5)C4)C3)C(=O)N(S(=O)(=O)c3ccc(OC)cn3)C3C=CC(C#N)=CC32)c1` (racemic; form 1), the Ki entry was “in the range around 5.5 nM”.

As to `CCOc1ncccc1C1(N2CC3(CN(N4CCN(C)CC4)C3)C2)C(=O)N(S(=O)(=O)c2ccc(OC)cn2)C2C=CC(C#N)=CC21` (racemic), the Ki result was “in the range around 5.5 nM”.

For `COc1ccc(S(=O)(=O)N2C(=O)C(c3ccccc3OC)(N3CC4(CN(C5CCN(C6COC6)CC5)C4)C3)C3C=C(C#N)C=CC32)nc1` (single isomer, unassigned; (+)), the inhibition constant Ki entry was “in the range around 5.5 nM”.

Take `CCOc1ccc(OC)cc1[C@]1(N2CC3(CN(C4CCN(C)CC4)C3)C2)C(=O)N(S(=O)(=O)c2ccc(OC)nc2)C2C=CC(C#N)=CC21` (stereo not given in full): the Ki entry was “in the range around 5.5 nM”.

For `CCOc1ccc(OC)c(C2(N3CC4(CN(C5CCN(C)CC5)C4)C3)C(=O)N(S(=O)(=O)c3ccc(OC)cc3)C3C=CC(C#N)=CC32)c1` (stereo not given), the inhibition constant (Ki) entry is “in the range around 5.5 nM”.

With `COc1ccc(S(=O)(=O)N2C(=O)C(c3ccccc3OC)(N3CC4(CN(N5CCN(C)CC5)C4)C3)C3C=C(C#N)C=CC32)nc1` (racemic), the Ki result is “in the range around 5.5 nM”.

In the case of `CCOc1ccc(OC)cc1C1(N2CC3(CN(N4CCN(C5COC5)CC4)C3)C2)C(=O)N(S(=O)(=O)c2ccc(OC)cn2)C2C=CC(C#N)=CC21` (racemic), the Ki result is “in the range around 5.5 nM”.
